Data published in patent US10383861B2, “3-(1H-pyrrolo[2,3-C]pyridin-2-yl)-1H-pyrazolo[3,4-C]pyridines and therapeutic uses thereof” (Samumed, LLC, priority 2015, dated 2019).

Key:
Type in all cases: cell-based
Wnt activity = Wnt activity screening assay, Sp5-Luc reporter gene in SW480 cells; settings: Homo sapiens; Sp5-Luc reporter, SW480 cells, overnight incubation
Procedure, shortened: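 Read-out is BrightGlo luminescence, normalized to DMSO-treated cells and fitted by four-parameter variable-slope regression for EC50. Reporter cells: SW480 colon carcinoma carrying a stable lentiviral Sp5-Luc construct with eight TCF/LEF sites, seeded 4,000/well in 1% FBS, incubated overnight at 37° C.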

SW480 colon cancer cells = assay: Cell viability assay (CellTiter-Blue) in SW480 colon cancer cells; settings: Homo sapiens; for EC50: 96 h, SW480 cell viability, four days, CellTiter-Blue; for inhibition at 10 µM: SW480, read-out: percent inhibition at 10 μM
Procedure, shortened: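 Fluorescence from resazurin reduced to resorufin by metabolically active cells was the read-out, taken after ~3 h with CellTiter-Blue.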

[1] = system: primary human fibroblasts derived from IPF patients (LL29 cells); assay: Inhibition of the fibrotic process: αSMA staining in TGF-β1 treated LL29 fibroblasts; settings: Fibroblast; for EC50: 96 h, LL29 cells, TGF-β1 20 ng/mL, 4 days, % αSMA positive cells
Procedure, shortened: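 Read-out after 4-day incubation: αSMA staining with 1 μM SYTOX green nuclear counterstain (30 min, room temperature). Cells were LL29 primary fibroblasts from IPF patients, in 1% FBS F12, exposed to TGF-β1 with test compound, referenced to TGF-β1/DMSO control wells.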

[2] = system: primary human mesenchymal stem cells (hMSCs); assay: Induction of chondrogenesis in hMSCs (nodule count, Rhodamine B/Nile Red); settings: 6 days; for EC50: concentration required to induce 50% levels of chondrogenesis vs TGF-β3, read-out: Conc (nM) of 50% TGF-β3 activity; for Emax: relative to TGF-β3 (10 ng/mL) positive control, read-out: Max. Activity as % TGF-β3 activity
Excerpt: Representative compounds were screened using primary human mesenchymal stem cells (hMSCs) to determine their ability to induce chondrogenesis (process by which cartilage is developed).
Primary human mesenchymal stem cells (hMSCs) were purchased from Lonza (Walkersville, Md.) and expanded in Mesenchymal Stem Cell Growth Media (Lonza). Cells between passage 3 and 6 were used for the experiments.
To image chondrogenic nodules, the cells were fixed using 4% formaldehyde (Electron Microscopy Sciences), and stained with 2 μg/mL Rhodamine B (Sigma-Aldrich) and 20 μM Nile Red (Sigma-Aldrich) [Johnson K., et.al, A Stem Cell-Based Approach to Cartilage Repair, Science, (2012). […] Number of nodules in each well was normalized to the average of 3 DMSO treated wells on the same plate using Excel (Microsoft Inc.). The normalized averages (fold change over DMSO) of 3 replicate wells for each compound concentration were calculated. Due to solubility limitations of some of the compounds, curve fitting was incomplete leading to inaccurate EC50 determinations.
Using TGF-β3 as a positive control, the concentration of representative compounds required to induce 50% levels of chondrogenesis is reported. In addition, the maximum activity of each compound and the respective dose that each compound reached maximum chondrogenesis activity is reported.

IL-6 = IL-6 inhibition in LPS-stimulated THP-1 cells (HTRF); settings: Homo sapiens; for EC50: THP-1 cells, LPS 500 ng/mL, 22 hours, IL6 HTRF; for inhibition at 10 µM: THP-1, read-out: percent inhibition at 10 μM
Procedure, shortened: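 After 24 h in 1% FBS medium, cells had compound 2 h before 500 ng/mL LPS, then 22 h more at 37 °C. DMSO-normalized HTRF signal (665/620 nm ratio, anti-IL-6 antibody pair) was fitted with a variable-slope four-parameter model to give EC50.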

Row | Compound | EC50 (Wnt activity) [µM] | EC50 (SW480 colon cancer cells) [µM] | inhibition at 10 µM (SW480 colon cancer cells) [%] | EC50 [1] [µM] | inhibition at 10 µM ([1]; read-out: percent inhibition at 10 μM) [%] | EC50 [2] [nM] | Emax [2] [%] | EC50 (IL-6) [µM] | inhibition at 10 µM (IL-6) [%]
1 | CCNCc1cncc(-c2cc3c(-c4cc5c(-c6cccnc6)cncc5[nH]4)n[nH]c3cn2)c1 [Compound 90, N-((5-(3-(4-(Pyridin-3-yl)-1H-pyrrolo[2,3-c]pyridin-2-yl)-1H-pyrazolo[3,4-c]pyridin-5-yl)pyridin-3-yl)methyl)ethanamine] | 3.73 | > 10 | 13 | > 10 | 0 | 10 | 68 | 1.06 | –
2 | FC1(F)CCN(Cc2cncc(-c3cc4c(-c5cc6c(-c7cccnc7)cncc6[nH]5)n[nH]c4cn3)c2)C1 [Compound 110, 5-(5-((3,3-Difluoropyrrolidin-1-yl)methyl)pyridin-3-yl)-3-(4-(pyridin-3-yl)-1H-pyrrolo[2,3-c]pyridin-2-yl)-1H-pyrazolo[3,4-c]pyridine] | 0.914 | 2.14 | – | 0.534 | – | 2700 | 54 | 0.688 | –
3 | Fc1ccc(-c2cncc3[nH]c(-c4n[nH]c5cnc(-c6cncc(CN7CCC(F)(F)C7)c6)cc45)cc23)cc1 [Compound 54, 5-(5-((3,3-Difluoropyrrolidin-1-yl)methyl)pyridin-3-yl)-3-(4-(4-fluorophenyl)-1H-pyrrolo[2,3-c]pyridin-2-yl)-1H-pyrazolo[3,4-c]pyridine] | 3.26 | > 10 | 38.6 | 9.98 | – | 100 | 78 | > 10 | 11.2
4 | Nc1cncc(-c2cc3c(-c4cc5c(-c6ccccc6F)cncc5[nH]4)n[nH]c3cn2)c1 [Compound 59, 5-(3-(4-(2-Fluorophenyl)-1H-pyrrolo[2,3-c]pyridin-2-yl)-1H-pyrazolo[3,4-c]pyridin-5-yl)pyridin-3-amine] | 1.63 | 3.4 | – | 1.77 | – | – | 16 | 3.61 | –
5 | CC(C)Nc1cncc(-c2cc3c(-c4cc5c(-c6cc(F)cc(CNS(C)(=O)=O)c6)cncc5[nH]4)n[nH]c3cn2)c1 [Compound 488, N-(3-Fluoro-5-(2-(5-(5-(isopropylamino)pyridin-3-yl)-1H-pyrazolo[3,4-c]pyridin-3-yl)-1H-pyrrolo[2,3-c]pyridin-4-yl)benzyl)methanesulfonamide] | 4.28 | > 10 | 11 | 2.59 | – | – | 17 | > 10 | 46.8
6 | Fc1cccc(-c2cncc3[nH]c(-c4n[nH]c5cnc(-c6cccnc6)cc45)cc23)c1 [Compound 4, 3-(4-(3-Fluorophenyl)-1H-pyrrolo[2,3-c]pyridin-2-yl)-5-(pyridin-3-yl)-1H-pyrazolo[3,4-c]pyridine] | 0.89 | 0.734 | – | 0.211 | – | 2700 | 64 | > 10 | 26.8
7 | Nc1cncc(-c2cc3c(-c4cc5c(N6CCCCC6)cncc5[nH]4)n[nH]c3cn2)c1 [Compound 171, 5-(3-(4-(Piperidin-1-yl)-1H-pyrrolo[2,3-c]pyridin-2-yl)-1H-pyrazolo[3,4-c]pyridin-5-yl)pyridin-3-amine] | 2.96 | 5.1 | – | 2.64 | – | 30 | 94 | 1.35 | –
8 | CCNCc1cncc(-c2cc3c(-c4cc5c(-c6ccccc6F)cncc5[nH]4)n[nH]c3cn2)c1 [Compound 62, N-((5-(3-(4-(2-Fluorophenyl)-1H-pyrrolo[2,3-c]pyridin-2-yl)-1H-pyrazolo[3,4-c]pyridin-5-yl)pyridin-3-yl)methyl)ethanamine] | 9.13 | > 10 | 44.4 | 2.64 | – | – | 21 | 3.66 | –
